Source: patent US11578084B2, “Condensed ring compounds having dopamine D3 receptor antagonistic effect” (Shionogi & Co., Ltd., priority 2018, dated 2023)
pKi: −log10 of the molar value. Where two headings read alike, the source gives them in different places.

Key:
[1] = molecular target: human recombinant dopamine D2 receptor (Homo sapiens (Human), UniProt P14416); experiment: Test of binding inhibition for dopamine D2 receptor ([3H]-Methylspiperone SPA); details: Jump-In HEK cell membranes, read-out: hD2_Ki
Sequence of human recombinant dopamine D2 receptor (P14416 whole entry): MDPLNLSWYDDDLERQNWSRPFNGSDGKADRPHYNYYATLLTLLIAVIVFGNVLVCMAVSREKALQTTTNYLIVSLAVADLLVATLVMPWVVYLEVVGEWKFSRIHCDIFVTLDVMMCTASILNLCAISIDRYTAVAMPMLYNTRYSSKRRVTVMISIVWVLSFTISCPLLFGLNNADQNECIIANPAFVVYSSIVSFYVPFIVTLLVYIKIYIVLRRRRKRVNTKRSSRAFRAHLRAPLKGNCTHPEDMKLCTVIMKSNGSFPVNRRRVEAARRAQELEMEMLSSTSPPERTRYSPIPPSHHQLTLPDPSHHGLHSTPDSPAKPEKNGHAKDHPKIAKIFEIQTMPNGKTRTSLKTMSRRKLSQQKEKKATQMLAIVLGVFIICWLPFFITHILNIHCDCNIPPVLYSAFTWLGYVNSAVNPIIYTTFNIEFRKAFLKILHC
Procedure, shortened: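 Scintillation proximity competition binding of [3H]-Methylspiperone to Jump-In HEK membranes expressing human D2 (2 μg protein/well) on WGA SPA beads (0.2 mg/well), 120 min at 25° C.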

[2] = molecular target: human recombinant dopamine D3 receptor (Homo sapiens (Human), UniProt P35462); experiment: Test of binding inhibition for dopamine D3 receptor ([3H]-Methylspiperone SPA); details: Jump-In HEK cell membranes, 2 nM [3H]-Methylspiperone, 120 min at 25° C.; read-out: hD3_Ki
Sequence of human recombinant dopamine D3 receptor (P35462 whole entry): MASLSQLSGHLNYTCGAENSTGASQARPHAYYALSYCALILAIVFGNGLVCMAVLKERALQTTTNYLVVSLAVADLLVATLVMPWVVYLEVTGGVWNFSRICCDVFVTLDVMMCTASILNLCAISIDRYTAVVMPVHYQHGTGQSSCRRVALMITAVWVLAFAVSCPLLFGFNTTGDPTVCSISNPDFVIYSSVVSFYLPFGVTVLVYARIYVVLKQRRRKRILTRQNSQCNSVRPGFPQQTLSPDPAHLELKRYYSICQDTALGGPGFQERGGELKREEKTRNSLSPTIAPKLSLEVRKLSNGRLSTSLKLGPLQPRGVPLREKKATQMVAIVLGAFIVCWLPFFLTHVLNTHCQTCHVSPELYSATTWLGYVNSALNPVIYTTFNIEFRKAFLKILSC
Procedure, shortened: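 SPA radioligand binding on Jump-In HEK membranes expressing human D3 receptor (4 µg/well) with 2 nM [3H]-methylspiperone (final), incubated 120 min at 25 °C. Non-specific binding defined with 10 µM butaclamol. Percent inhibition computed against total and non-specific binding; Ki from dose-response curves.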

[3] = molecular target: hERG channel (IKr) (Homo sapiens (Human), UniProt Q12809); experiment: hERG test (whole cell patch clamp, IKr); type: cell-based; details: human, CHO cells expressing hERG channel, pH 7.4, 3 μM, tail peak current
Sequence of hERG channel (IKr) (Q12809 whole entry): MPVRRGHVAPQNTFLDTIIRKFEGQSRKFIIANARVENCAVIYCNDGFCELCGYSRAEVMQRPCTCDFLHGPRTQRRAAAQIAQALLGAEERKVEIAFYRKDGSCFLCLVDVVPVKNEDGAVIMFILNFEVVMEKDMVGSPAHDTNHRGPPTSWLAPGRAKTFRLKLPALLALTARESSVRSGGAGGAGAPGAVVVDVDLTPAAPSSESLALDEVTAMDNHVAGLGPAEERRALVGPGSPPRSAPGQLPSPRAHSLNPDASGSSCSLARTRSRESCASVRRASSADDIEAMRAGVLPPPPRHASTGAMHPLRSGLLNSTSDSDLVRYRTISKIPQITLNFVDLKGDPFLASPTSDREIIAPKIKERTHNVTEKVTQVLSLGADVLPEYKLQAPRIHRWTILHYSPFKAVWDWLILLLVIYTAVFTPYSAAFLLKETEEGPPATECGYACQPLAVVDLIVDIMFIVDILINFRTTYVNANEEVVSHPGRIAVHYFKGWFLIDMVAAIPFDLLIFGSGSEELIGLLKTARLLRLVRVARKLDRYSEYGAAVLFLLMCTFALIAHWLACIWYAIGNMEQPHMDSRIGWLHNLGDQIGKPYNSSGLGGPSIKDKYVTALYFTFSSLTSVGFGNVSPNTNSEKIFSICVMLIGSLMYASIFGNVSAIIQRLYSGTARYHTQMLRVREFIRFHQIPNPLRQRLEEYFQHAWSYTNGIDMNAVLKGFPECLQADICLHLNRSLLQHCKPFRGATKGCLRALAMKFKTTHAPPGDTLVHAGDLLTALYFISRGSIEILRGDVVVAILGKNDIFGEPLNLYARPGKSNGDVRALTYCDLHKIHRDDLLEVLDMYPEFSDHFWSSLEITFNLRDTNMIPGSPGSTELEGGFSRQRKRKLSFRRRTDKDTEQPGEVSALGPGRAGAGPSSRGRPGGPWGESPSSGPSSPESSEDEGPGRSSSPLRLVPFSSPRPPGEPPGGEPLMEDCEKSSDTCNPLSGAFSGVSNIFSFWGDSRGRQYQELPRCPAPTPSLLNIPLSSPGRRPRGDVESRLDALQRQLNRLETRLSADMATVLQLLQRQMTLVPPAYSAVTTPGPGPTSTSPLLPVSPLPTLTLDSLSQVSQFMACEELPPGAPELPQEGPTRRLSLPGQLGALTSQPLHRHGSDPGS
From the text: Test Example 10: hERG Test
For the purpose of assessing risk of an electrocardiogram QT interval prolongation of the compound of the present invention, effects of the compound of the present invention on delayed rectifier K+ current (IKr), which plays an important role in the ventricular repolarization process, was studied using CHO cells expressing human ether-a-go-go related gene (hERG) channel.
After a cell was retained at a membrane potential of −80 mV by whole cell patch clamp method using an automated patch clamp system (QPatch; Sophion Bioscience A/S) and gave a leak potential of −50 mV, IKr induced by depolarization pulse stimulation at +20 mV for 2 seconds and, further, repolarization pulse stimulation at −50 mV for 2 seconds, was recorded. After the generated current was stabilized, extracellular solution (NaCl: 145 mmol/L, KCl: 4 mmol/L, CaCl2): 2 mmol/L, MgCl2: 1 mmol/L, glucose: 10 mmol/L, HEPES (4-(2-hydroxyethyl)-1-piperazineethanesulfonic acid): 10 mmol/L, pH=7.4), in which the compound of the present invention had been dissolved at an objective concentration in the extracellular solution, was applied to the cell at room temperature for 7 minutes or more. From the recording IKr, an absolute value of the tail peak current was measured based on the current value at the resting membrane potential using analysis software (QPatch Assay software; Sophion Bioscience A/S). Further, the % inhibition of tail peak current for the compound of the present invention relative to the tail peak current after application of the solution (0.1% dimethyl sulfoxide solution) was calculated to assess influence of the compound of the present invention on IKr.

[4] = 1.2 nM [3H]-Methylspiperone, 120 min at 25° C.

Row | SMILES | pKi [1, 4] | pKi [2] | inhibition at 3 µM [3] [%] | pKi ([1]; [3H]-Methylspiperone 1.2 nM)
1 | COC(CN1CCc2ccc(OCC(F)(F)F)nc2CC1)[C@H]1CC[C@H](NC(=O)Cc2cnc(C)o2)CC1 (single isomer, unassigned) [Example I-045] | 5.77 | 9.09 | 18.3 | –
2 | COC(CN1CCc2sc(OCC(C)(F)F)nc2C1)C1CC2(CC(NC(=O)c3cccc4nn(C)cc34)C2)C1 (single isomer, unassigned) [Example I-047] | 6.96 | 10.24 | 13.6 | –
3 | Cn1cc2c(C(=O)N[C@H]3CC4(C3)C[C@](F)(CCN3CCc5nc(OCC(F)(F)F)sc5CC3)C4)cccc2n1 (single isomer, unassigned) [Example I-049] | 6.51 | 9.48 | 36.8 | –
4 | CC(Oc1nc2c(s1)CCN(CC[C@H]1CC[C@H](NC(=O)c3cccc4nn(C)cc34)CC1)CC2)C(F)F (single isomer, unassigned) [Example I-112] | < 5.66 | 9.92 | 23.5 | –
5 | CN1Cc2c(C(=O)N[C@H]3CC[C@H](CCN4CCc5sc(OC6CC(F)(F)C6)nc5C4)CC3)cccc2C1=O [Example I-001] | 6.54 | 9.70 | 21.3 | –
6 | Cc1ncc(CC(=O)N[C@H]2CC[C@H](CCN3CCc4sc(OC5CC(F)(F)C5)nc4C3)CC2)o1 [Example I-002] | – | 9.33 | 30.3 | –
7 | Cn1cc2c(C(=O)N[C@H]3CC[C@H](CCN4CCc5ccc(OCC(C)(C)F)nc5CC4)CC3)cccc2n1 [Example I-003] | 6.11 | 9.82 | 31 | –
8 | Cn1cc(CC(=O)N[C@H]2CC[C@H](CCN3CCc4nc(OCC(C)(F)F)sc4CC3)CC2)cn1 [Example I-004] | 6.15 | 9.82 | 21.6 | –
9 | Cc1ncc(CC(=O)N[C@H]2CC[C@H](CCN3CCc4ccc(OC(C)C)nc4CC3)CC2)o1 [Example I-006] | < 5.72 | 9.23 | 23 | –
10 | Cc1nnc(CC(=O)N[C@H]2CC[C@H](CCN3CCc4ccc(OC(C)C)nc4CC3)CC2)s1 [Example I-007] | 5.82 | 9.17 | 33.7 | –
11 | Cc1nc(CC(=O)N[C@H]2CC[C@H](CCN3CCc4nc(OCC(C)(F)F)sc4CC3)OC2)no1 [Example I-008] | < 5.72 | 9.02 | 20.8 | –
12 | Cn1cc2c(C(=O)N[C@H]3CC[C@H](CCN4CCc5nc(OCC(C)(F)F)sc5CC4)OC3)cccc2n1 [Example I-009] | 6.16 | 9.92 | 33.8 | –
13 | COc1cc(CC(=O)N[C@H]2CC[C@H](CCN3CCc4nc(OCC(C)(F)F)sc4CC3)OC2)on1 [Example I-010] | 6.03 | 9.89 | 32 | –
14 | Cc1nnc(CC(=O)N[C@H]2CC[C@H](CCN3CCc4sc(C5CC(F)(F)C5)nc4C3)OC2)o1 [Example I-011] | 6.02 | 9.49 | 10.6 | –
15 | CN1Cc2c(C(=O)N[C@H]3CC[C@H](CCN4CCc5sc(C6CC(F)(F)C6)nc5C4)CC3)cccc2C1=O [Example I-012] | 6.59 | 9.82 | 19 | –
16 | Cc1nc(CC(=O)N[C@H]2CC[C@](F)(CCN3CCc4nc(OCC(C)(F)F)sc4CC3)CC2)no1 [Example I-013] | 6.04 | 9.28 | 21.4 | –
17 | Cc1nnc(CC(=O)N[C@H]2CC[C@](F)(CCN3CCc4nc(OCC(C)(F)F)sc4CC3)CC2)o1 [Example I-014] | 6.01 | 9.32 | 3.83 | –
18 | Cc1cnc(CC(=O)N[C@H]2CC[C@](F)(CCN3CCc4nc(OCC(C)(F)F)sc4CC3)CC2)o1 [Example I-015] | 6.00 | 9.59 | 24.3 | –
19 | Cn1cc2c(C(=O)NN3CCC(CCN4CCc5ccc(OCC(F)(F)F)nc5CC4)CC3)cccc2n1 [Example I-016] | 6.07 | 10.41 | 19.1 | –
20 | Cn1cc(CC(=O)N[C@H]2CC[C@](F)(CCN3CCc4ccc(OCC(C)(F)F)nc4CC3)CC2)cn1 [Example I-017] | 6.62 | 10.20 | 21.6 | –
21 | Cc1nnc(CC(=O)N[C@H]2CC[C@](F)(CCN3CCc4ccc(OCC(C)(F)F)nc4CC3)CC2)s1 [Example I-018] | 6.72 | 10.46 | 33.8 | –
22 | Cc1ncccc1C(=O)N[C@H]1CC[C@H](CCN2CCc3nc(OC4CC(F)(F)C4)sc3CC2)CC1 [Example I-019] | < 5.74 | 9.43 | 8.86 | –

Row | SMILES | pKi [1, 4] | pKi [2] | inhibition at 3 µM [3] [%] | pKi ([1]; [3H]-Methylspiperone 1.2 nM)
23 | Cc1nnc(CC(=O)N[C@H]2CC[C@H](CCN3CCc4nc(OC5CC(F)(F)C5)sc4CC3)CC2)o1 [Example I-020] | < 5.74 | 9.57 | 23.1 | –
24 | Cn1cc(CC(=O)N[C@H]2CC[C@H](CCN3CCc4nc(OC5CC(F)(F)C5)sc4CC3)CC2)cn1 [Example I-021] | 5.72 | 9.82 | 24.3 | –
25 | Cc1cc(OCC(=O)N[C@H]2CC[C@H](CCN3CCc4nc(OC5CC(F)(F)C5)sc4CC3)CC2)no1 [Example I-022] | < 5.64 | 10.00 | 32.6 | –
26 | Cn1ncc(CC(=O)N[C@H]2CC[C@H](CCN3CCc4nc(OC5CC(F)(F)C5)sc4CC3)CC2)n1 [Example I-023] | < 5.66 | 9.96 | 16.5 | –
27 | Cc1nc(CC(=O)N[C@H]2CC[C@](F)(CCN3CCc4ccc(OCC(F)F)nc4CC3)CC2)no1 [Example I-024] | < 5.66 | 9.70 | 18.7 | –
28 | Cc1nnc(CC(=O)N[C@H]2CC[C@](F)(CCN3CCc4ccc(OCC(F)F)nc4CC3)CC2)o1 [Example I-025] | 6.09 | 9.34 | 14.9 | –
29 | Cc1ncc(CC(=O)N[C@H]2CC[C@](F)(CCN3CCc4ccc(OCC(F)F)nc4CC3)CC2)o1 [Example I-026] | 5.96 | 10.02 | 20.1 | –
30 | Cn1cc(CC(=O)N[C@H]2CC[C@](F)(CCN3CCc4ccc(OCC(F)F)nc4CC3)CC2)cn1 [Example I-027] | 6.00 | 9.64 | 14.3 | –
31 | Cn1cc2c(C(=O)NN3CCC(F)(CCN4CCc5sc(OCC(F)(F)F)nc5C4)CC3)cccc2n1 [Example I-028] | 6.19 | 9.39 | 9.09 | –
32 | Cn1c(C(=O)N[C@H]2CC[C@](F)(CCN3CCc4ccc(OCC(F)F)nc4CC3)CC2)cccc1=O [Example I-029] | 6.21 | 9.44 | 8.37 | –
33 | Cc1ncc(/C=C/C(=O)N[C@H]2CC[C@](F)(CCN3CCc4ccc(OCC(C)(F)F)nc4CC3)CC2)cn1 [I′-47] | – | 10.09 | – | 7.39
34 | Cc1ncc(/C=C/C(=O)N[C@H]2CC[C@](F)(CCN3CCc4nc(OCC(F)(F)F)sc4CC3)CC2)cn1 [I′-48] | – | 9.57 | – | < 5.66
35 | Cn1c(C(=O)N[C@H]2CC[C@](F)(CCN3CCc4nc(OCC(F)(F)F)sc4CC3)CC2)cccc1=O [I′-49] | – | 9.23 | – | 6.54
36 | Cc1nc(CC(=O)N[C@H]2CC[C@](F)(CCN3CCc4nc(OCC(F)(F)F)sc4CC3)CC2)nn1C [I′-50] | – | 9.64 | – | 5.80
37 | Cc1ncc(CC(=O)N[C@H]2CC[C@](F)(CCN3CCc4nc(OCC(F)(F)F)sc4CC3)CC2)cn1 [I′-51] | – | 9.32 | – | 6.05
38 | Cc1cnc(OCC(=O)N[C@H]2CC[C@](F)(CCN3CCc4nc(OCC(F)(F)F)sc4CC3)CC2)cn1 [I′-52] | – | 9.77 | – | < 5.66
39 | Cc1cnc(OCC(=O)N[C@H]2CC[C@](F)(CCN3CCc4ccc(OCC(F)F)nc4CC3)CC2)cn1 [I′-53] | – | 9.49 | – | < 5.66
40 | Cc1ncc(OCC(=O)N[C@H]2CC[C@H](CCN3CCc4nc(OCC(F)F)sc4CC3)CC2)cn1 [I′-54] | – | 9.49 | – | 5.80
41 | Cc1ncc(CC(=O)N[C@H]2CC[C@H](CCN3CCc4nc(OCC(C)(F)F)sc4CC3)CC2)cn1 [I′-55] | – | 9.80 | – | 6.02
42 | Cc1ncc(CC(=O)N[C@H]2CC[C@H](CCN3CCc4nc(OCC(F)F)sc4CC3)CC2)cn1 [I′-56] | – | 9.52 | – | 5.85
43 | Cc1ncc(CC(=O)N[C@H]2CC[C@H](CCN3CCc4cc(F)c(OCC(F)F)nc4CC3)CC2)o1 [I′-57] | – | 9.28 | – | < 5.66
